ChEMBL document CHEMBL1201862, “PubChem BioAssay data set” (2004)
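Growth conditions: 96-well plates. Treatment: test compound, 48 hours, 5 concentrations. Analysis: linear interpolation between bracketing concentrations; unreached endpoints set to highest concentration. GI50 = concentration required for 50% inhibition of growth.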 Active and inactive are the calls of the source. No stated cut-off is given here; in the data, active = GI50 up to about 1.1 µM and inactive = higher.

Columns and labels:
Experiment in all cases: DTP human tumour cell line panel, 48 h
K562 = test system: K562
UACC-257 = test system: UACC-257
SR = test system: SR
SNB-75 = test system: SNB-75
DU-145 = test system: DU-145
HCC 2998 = test system: HCC 2998
NCI-H522 = test system: NCI-H522
RPMI-8226 = test system: RPMI-8226
SF-295 = test system: SF-295
A498 = test system: A498
SF-268 = test system: SF-268
NCI-H23 = test system: NCI-H23
SW-620 = test system: SW-620
MOLT-4 = test system: MOLT-4
UACC-62 = test system: UACC-62
COLO 205 = test system: COLO 205
786-0 = test system: 786-0
Malme-3M = test system: Malme-3M
SK-OV-3 = test system: SK-OV-3
T47D = test system: T47D

Measured: GI50

O=C1/C(=C/c2ccc(Cl)c(Cl)c2)CNC/C1=C\c1ccc(Cl)c(Cl)c1
inactive: K562 3.1 µM | UACC-257 41.2 µM | SR 3.96 µM | SNB-75 10.8 µM | DU-145 49 µM | HCC 2998 9.66 µM | NCI-H522 11 µM | RPMI-8226 3.75 µM | SF-295 9.2 µM | A498 18.3 µM | SF-268 3.95 µM | NCI-H23 8.51 µM | SW-620 1.38 µM | MOLT-4 5.4 µM | UACC-62 14 µM | COLO 205 5.27 µM | 786-0 2.39 µM | Malme-3M 28.1 µM | SK-OV-3 40.7 µM

COc1ccc2c(c1O)[C@@]13CCCC=C1[C@@H](C2)[N+](C)(C)CC3
inactive: K562 57.8 µM | UACC-257 79.1 µM | SNB-75 77.6 µM | DU-145 > 100 µM | HCC 2998 > 100 µM | NCI-H522 63 µM | SF-295 > 100 µM | SF-268 > 100 µM | NCI-H23 > 100 µM | SW-620 > 100 µM | UACC-62 > 100 µM | COLO 205 43.6 µM | 786-0 > 100 µM | T47D > 100 µM | Malme-3M > 100 µM | SK-OV-3 > 100 µM

CCOC(=O)Cc1c(C)c2ccc(OC(C)=O)c(OC(C)=O)c2oc1=O
inactive: K562 28.8 µM | UACC-257 14.8 µM | SR 14.3 µM | SNB-75 19.4 µM | DU-145 24.9 µM | RPMI-8226 18.3 µM | SF-295 36.7 µM | A498 44.1 µM | SF-268 19.6 µM | NCI-H23 22.4 µM | SW-620 20.7 µM | MOLT-4 23.6 µM | UACC-62 32.7 µM | COLO 205 40 µM | 786-0 27.7 µM | Malme-3M 12.3 µM | SK-OV-3 > 100 µM

C[C@@H]1CC(=O)C[C@@H]2CC[C@H]3[C@@H]4CC[C@H](OC(=O)c5cccc6cc7ccccc7nc56)[C@H]4CC[C@@H]3[C@H]21
inactive: K562 8 µM | UACC-257 14.3 µM | SNB-75 15.6 µM | DU-145 14 µM | NCI-H522 5.6 µM | SF-295 27.8 µM | SF-268 6.4 µM | NCI-H23 14.7 µM | SW-620 17.4 µM | MOLT-4 3.48 µM | UACC-62 13.3 µM | COLO 205 22.2 µM | 786-0 11.4 µM | T47D 13.7 µM | Malme-3M 8.71 µM | SK-OV-3 25.2 µM

CCOP(=O)(/C=C/n1ccc(=O)[nH]c1=O)OCC
inactive: K562 > 100 µM | UACC-257 > 100 µM | SNB-75 > 100 µM | DU-145 > 100 µM | NCI-H522 > 100 µM | RPMI-8226 > 100 µM | SF-295 > 100 µM | A498 > 100 µM | SF-268 > 100 µM | NCI-H23 > 100 µM | SW-620 > 100 µM | MOLT-4 > 100 µM | UACC-62 > 100 µM | COLO 205 > 100 µM | 786-0 > 100 µM | T47D > 100 µM | SK-OV-3 > 100 µM

CCOC(=O)c1[nH]c2ccccc2c1C(=O)C[C@H](NC(=O)C(F)(F)F)C(=O)OC
inactive: K562 > 100 µM | UACC-257 > 100 µM | SR > 100 µM | SNB-75 > 100 µM | DU-145 > 100 µM | HCC 2998 > 100 µM | NCI-H522 97.3 µM | RPMI-8226 > 100 µM | SF-295 > 100 µM | A498 > 100 µM | SF-268 > 100 µM | NCI-H23 > 100 µM | SW-620 > 100 µM | MOLT-4 > 100 µM | COLO 205 > 100 µM | 786-0 > 100 µM | Malme-3M > 100 µM
